The nature of this data set: Urinary metabolites in 24 h urine by HPLC-MS/MS. Type of data set: in vivo, FVB mice. How it is done:
The assessment of the urinary elimination after oral and intravenous administration, in the urine fraction collected 24 h post dose, is reported in Table 6. […] To further investigate this issue, we searched for the presence of urinary metabolites in the 24 h urine samples in one mouse per treatment group. We identified at least eight molecules most likely originating from the parent compounds (Table 7; see Supplementary Figure S1 for the hypothesized structures).
Mice were treated with ZST316 and ZST152 using a dose of 60 mg/Kg (oral gavage) and 30 mg/Kg (intravenous bolus). For pharmacokinetic sampling, blood was collected at 15 and 30 min, and 1, 3, 8, and 24 h post dose. Three mice were analyzed per each time point. After the animals were anesthetized with isoflurane, the blood was drained from the retro-orbital plexus into heparinized tubes, and then centrifuged for 10 min at 4000× g at 4 °C to separate plasma. A 24-h urine fraction was collected in three mice for each drug and route of administration. Plasma and urine samples were stored at −20 °C until analysis by HPLC-MS/MS.
[…] chromatography was performed using a series 200 HPLC system (Perkin Elmer, Waltham, MA, USA) under gradient conditions with separation on a HILIC column, 3 µm, 100 A, 2.1 × 150 mm (Waters, Milford, MA, USA), coupled with a 3 µm, 3.9 × 5.0 mm guard column of the same material at the flow rate of 0.2 mL/min. Gradient features: 10% mobile phase (MP) A (NH4HCO2 10 mM, 10% CH3CN, 0.1% HCOOH) and 90% MP B (CH3CN, 0.1% HCOOH) as the initial constant condition; then to 90% MP A in 6 min and the constant condition for 1.5 min. Return to the start condition in 0.5 min and conditioning for 5.5 min. Total run time: 13.5 min. Mass spectrometric detection was performed using an API 4000 triple quadrupole mass spectrometer (SCIEX, Framingham, MA, USA) supplied with a Turbo Ion Spray source set at 350 °C and −4200 V, analyzing biological samples with electrospray ionization (ESI) operating in negative ion mode. Purified air was used as nebulizer gas (Gas 1) and heater gas (Gas 2) and N2 was used as curtain gas and collision activated dissociation gas. They were set to 40, 50, 20, and 4 instrument units (psi), respectively. The declustering potential (DP) was set at −119 V and the collision exit potential (CXP) at –10 V. All parameters of the source were defined by direct infusion of ZST316 and ZST152 1 µg/mL in mobile phase B. The final quantification was carried out in Selected Reaction Monitoring (SRM) with the following transitions: m/z 307.9 → 208.0 (collision energy of −29.5 eV) for ZST316 and m/z 271.9 → 170.9 (collision energy −24.7 eV) for ZST152 (Figure 2 and Figure 3). Data were processed with the software package Analyst 1.6.2 (AB SCIEX).

[1] abbreviates: after intravenous ZST316, total dose 1.326 mg, mouse #1, 24 h urine.
The mark [2] stands for this setting: after oral ZST316, total dose 1.308 mg, mouse #3, 24 h urine.
Setting [3] is: after intravenous ZST152, total dose 1.410 mg, mouse #1, 24 h urine.
Where [4] appears, read: after oral ZST152, total dose 1.158 mg, mouse #3, 24 h urine.

Consider `COCCNC(=N)NCCC[C@H](O)C(=O)NC(C)=O` [M9], for which, under setting [1], the “% of Dose recovered in urine” value came out at 0.32% and the “Amount Recovered in urine” value turned out to be 4.28 µg. Moreover, under setting [2], the “% of Dose recovered in urine” value is 5.4% and the “Amount Recovered in urine” value was 71.0 µg.
`COCCNC(=N)NCCCC(=O)O` [M4]: the “% of Dose recovered in urine” value runs as follows: under setting [3], 6.6%; under setting [1], 0.66%; under setting [4], 7.6%; under setting [2], 8.2%. Moreover, the “Amount Recovered in urine” value reads like this: under setting [3], 93.3 µg; under setting [1], 8.71 µg; under setting [4], 87.8 µg; under setting [2], 108 µg.
For `COCCNC(=N)N` [M1], the “% of Dose recovered in urine” value is on record as 0.039% under setting [3], 0.017% under setting [1], 0.088% under setting [4] and 0.21% under setting [2]. Also, the “Amount Recovered in urine” value is, setting by setting: under setting [3], 0.55 µg; under setting [1], 0.23 µg; under setting [4], 1.02 µg; under setting [2], 2.74 µg.
In the case of `COCCNC(=N)NCCC[C@H](N)C=NO` [M6], under setting [3], the “% of Dose recovered in urine” value amounted to 0.10% and the “Amount Recovered in urine” value was 1.48 µg. Also, under setting [4], the “% of Dose recovered in urine” value was 0.014% and the “Amount Recovered in urine” value is 0.16 µg.
As to `COCCNC(=N)NCCCCO` [M3], under setting [3], the “% of Dose recovered in urine” value is given as 0.19% and the “Amount Recovered in urine” value is reported as 2.62 µg. For the same compound, under setting [4], the “% of Dose recovered in urine” value turned out to be 4.2% and the “Amount Recovered in urine” value stood at 49.1 µg.
As to `COCCNC(=N)NCCC[C@H](N)C(=O)O` [M7], the “% of Dose recovered in urine” value is 0.13% under setting [3], 6.5% under setting [1], 0.22% under setting [4] and 76% under setting [2]. Further, the “Amount Recovered in urine” value is 1.77 µg under setting [3], 86.1 µg under setting [1], 2.58 µg under setting [4] and 991 µg under setting [2].
For `COCCNC(=N)NCCC[C@H](O)C(=O)O` [M8], under setting [1], the “% of Dose recovered in urine” value was found to be 0.37% and the “Amount Recovered in urine” value turned out to be 4.87 µg. In addition, under setting [2], the “% of Dose recovered in urine” value is reported as 4.1% and the “Amount Recovered in urine” value is reported as 53.4 µg.
Regarding `COCCNC(=N)NCCCC=O` [M2], under setting [3], the “% of Dose recovered in urine” value is given as 9.05% and the “Amount Recovered in urine” value amounted to 128 µg. Under setting [4], the “% of Dose recovered in urine” value is reported as 0.023% and the “Amount Recovered in urine” value was determined as 0.27 µg.
